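In this assay, cells in 96-well plates receive the compound at five concentrations for 48 hours. Endpoints are linearly interpolated between the surrounding concentrations. GI50: concentration for 50% inhibition of growth.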 The source made the active and inactive calls. Rule as the data show it: active = GI50 up to about 1.1 µM and inactive = higher.
Experiments:
Assay in all cases: growth of human tumour cells (NCI), 48 h
786-0 = test system: 786-0
A549 = test system: A549
CAKI-1 = test system: CAKI-1
CCRF-CEM = test system: CCRF-CEM
COLO 205 = test system: COLO 205
DU-145 = test system: DU-145
EKVX = test system: EKVX
HCC 2998 = test system: HCC 2998
HCT-15 = test system: HCT-15
HL-60 = test system: HL-60
HOP-62 = test system: HOP-62
HT-29 = test system: HT-29
IGROV-1 = test system: IGROV-1
K562 = test system: K562
KM12 = test system: KM12
LOX IMVI = test system: LOX IMVI
M14 = test system: M14
MCF7 = test system: MCF7
MDA-MB-231 = test system: MDA-MB-231
MDA-N = test system: MDA-N
MOLT-4 = test system: MOLT-4
Malme-3M = test system: Malme-3M
NCI-H23 = test system: NCI-H23
OVCAR-8 = test system: OVCAR-8
PC-3 = test system: PC-3
RPMI-8226 = test system: RPMI-8226
RXF 393 = test system: RXF 393
SF-268 = test system: SF-268
SK-MEL-28 = test system: SK-MEL-28
SK-MEL-5 = test system: SK-MEL-5
SK-OV-3 = test system: SK-OV-3
SN12C = test system: SN12C
SNB-75 = test system: SNB-75
SW-620 = test system: SW-620
T47D = test system: T47D
TK-10 = test system: TK-10
UACC-257 = test system: UACC-257
UACC-62 = test system: UACC-62
A498 = test system: A498
ACHN = test system: ACHN
HCT-116 = test system: HCT-116
Hs-578T = test system: Hs-578T
MDA-MB-435 = test system: MDA-MB-435
NCI-H226 = test system: NCI-H226
NCI-H460 = test system: NCI-H460
NCI-H522 = test system: NCI-H522
NCI/ADR-RES = test system: NCI/ADR-RES
OVCAR-3 = test system: OVCAR-3
OVCAR-4 = test system: OVCAR-4
SF-295 = test system: SF-295
SF-539 = test system: SF-539
SK-MEL-2 = test system: SK-MEL-2
SNB-19 = test system: SNB-19
U-251 = test system: U-251
UO-31 = test system: UO-31
HOP-92 = test system: HOP-92
OVCAR-5 = test system: OVCAR-5

Measured: GI50

CCN(CC)CCC/N=c1\c2cc(OC)ccc2[nH]c2c([N+](=O)[O-])ccc(NCCCN(CC)CC)c12
active: CCRF-CEM 0.479 µM | HL-60 0.3 µM | MOLT-4 0.484 µM | OVCAR-8 1.03 µM
inactive: 786-0 1.45 µM | A549 1.78 µM | CAKI-1 9.66 µM | COLO 205 5.13 µM | DU-145 5.13 µM | EKVX 3.97 µM | HCC 2998 1.49 µM | HOP-62 4.47 µM | HT-29 1.6 µM | IGROV-1 3.42 µM | K562 1.77 µM | KM12 1.52 µM | LOX IMVI 1.34 µM | M14 > 10 µM | MCF7 1.54 µM | MDA-MB-231 1.49 µM | MDA-N 5.77 µM | Malme-3M > 10 µM | NCI-H23 2.26 µM | PC-3 1.47 µM | RPMI-8226 1.72 µM | RXF 393 1.95 µM | SF-268 2.87 µM | SK-MEL-28 > 10 µM | SK-MEL-5 9.42 µM | SK-OV-3 3.08 µM | SN12C 2.04 µM | SNB-75 > 10 µM | SW-620 1.69 µM | T47D > 10 µM | TK-10 8.24 µM | UACC-257 > 10 µM | UACC-62 > 10 µM
1.43 µM: HCT-15

Cc1nnc(Nc2ccc(Cl)cc2)o1
inactive: 786-0 > 10 µM | A498 > 10 µM | A549 > 10 µM | ACHN > 10 µM | CAKI-1 > 10 µM | CCRF-CEM > 10 µM | COLO 205 > 10 µM | DU-145 > 10 µM | EKVX > 10 µM | HCC 2998 > 10 µM | HCT-116 > 10 µM | HL-60 > 10 µM | HOP-62 > 10 µM | HT-29 > 10 µM | Hs-578T > 10 µM | IGROV-1 > 10 µM | K562 > 10 µM | KM12 > 10 µM | LOX IMVI > 10 µM | M14 > 10 µM | MCF7 > 10 µM | MDA-MB-231 > 10 µM | MDA-MB-435 > 10 µM | MDA-N > 10 µM | Malme-3M > 10 µM | NCI-H226 > 10 µM | NCI-H23 > 10 µM | NCI-H460 > 10 µM | NCI-H522 > 10 µM | NCI/ADR-RES > 10 µM | OVCAR-3 > 10 µM | OVCAR-4 > 10 µM | OVCAR-8 > 10 µM | PC-3 > 10 µM | RXF 393 > 10 µM | SF-268 > 10 µM | SF-295 > 10 µM | SF-539 > 10 µM | SK-MEL-28 > 10 µM | SK-MEL-2 > 10 µM | SK-MEL-5 > 10 µM | SK-OV-3 > 10 µM | SN12C > 10 µM | SNB-19 > 10 µM | SNB-75 > 10 µM | SW-620 > 10 µM | T47D > 10 µM | TK-10 > 10 µM | U-251 > 10 µM | UACC-257 > 10 µM | UACC-62 > 10 µM | UO-31 > 10 µM
> 10 µM: HCT-15

COC(=O)C1C2CC3C1C3C2C(=O)OC (stereo unspecified)
> 100 µM: HCT-15
inactive: 786-0 > 100 µM | A498 > 100 µM | A549 > 100 µM | ACHN > 100 µM | CAKI-1 > 100 µM | CCRF-CEM > 100 µM | COLO 205 > 100 µM | DU-145 > 100 µM | EKVX > 100 µM | HCC 2998 > 100 µM | HCT-116 > 100 µM | HOP-62 > 100 µM | HOP-92 > 100 µM | HT-29 > 100 µM | Hs-578T > 100 µM | IGROV-1 > 100 µM | K562 > 100 µM | KM12 > 100 µM | LOX IMVI > 100 µM | M14 > 100 µM | MCF7 > 100 µM | MDA-MB-231 > 100 µM | MDA-MB-435 > 100 µM | MDA-N > 100 µM | MOLT-4 > 100 µM | Malme-3M > 100 µM | NCI-H226 > 100 µM | NCI-H23 > 100 µM | NCI-H460 > 100 µM | NCI-H522 > 100 µM | NCI/ADR-RES > 100 µM | OVCAR-3 > 100 µM | OVCAR-4 > 100 µM | OVCAR-5 > 100 µM | OVCAR-8 > 100 µM | PC-3 > 100 µM | RXF 393 > 100 µM | SF-268 > 100 µM | SF-295 > 100 µM | SF-539 > 100 µM | SK-MEL-28 > 100 µM | SK-MEL-2 > 100 µM | SK-MEL-5 > 100 µM | SK-OV-3 > 100 µM | SN12C > 100 µM | SNB-19 > 100 µM | SNB-75 > 100 µM | SW-620 > 100 µM | T47D > 100 µM | TK-10 > 100 µM | U-251 > 100 µM | UACC-257 > 100 µM | UACC-62 > 100 µM | UO-31 > 100 µM

From ChEMBL document CHEMBL1201862, “PubChem BioAssay data set” (2004)
